The record followed here is patent US4607123A, “Water soluble 3,5-diacetamido-2,4,6-triiodobenzoic acid derivatives” (Dr. Franz Kohler Chemie GmbH, priority 1984, dated 1986).

Molecules are shown by their SMILES.

Data set [1] in a line: water solubility. It is filed as physicochemical. Conditions: for solubility (in words): in water; for solubility: water. The source says: The configuration of the α-amino acid moiety may be arbitrary. The type of amino acid residue influences to a degree the solubility of the compound of the invention in water. For example, […]
Data set [2] can be described thus: viscosity of aqueous preparations (Table 1). It is filed as physicochemical. The source says:
The derivatives of compounds (I) of the invention which show a good solubility in water generally show viscosity values which, as can be expected, are dependent from the number and position of the hydroxy groups, as well as from the configuration of the amino acid residue. Representative compounds of the invention are shown in the Table 1, with their viscosity values.
Viscosity data in dependency from the type of amino acid and
the concentration of the preparation.

Data set [3] in a line: heat stability of a 67,9% aq. solution at different temperatures and times (Table 2). It is filed as physicochemical. The source says:
Behaviour of a 67,9% aq. solution of (II) at different temperatures

Data set [4] concerns mouse. Description: LD50 in mouse, i.v. (Table 3). It is filed as in vivo. As to the method:
(§1) LD50 in mouse, i.v. (14 days after application) of solution
(§2) with a content of 300 mg J/ml.

Data set [5] in a line: LD50 in mouse, i.v. (Table 3). Conditions: in vivo, iv, 14 days after application, solution with 300 mg J/ml. It is filed as in vivo. As for the experimental part:
as §1, §2

With `CC(=O)Nc1c(I)c(NC(C)=O)c(I)c(C(=O)NC(CC(=O)N(C)C[C@H](O)[C@@H](O)[C@H](O)[C@H](O)CO)C(=O)N(C)C[C@H](O)[C@@H](O)[C@H](O)[C@H](O)CO)c1I` (mixture of isomers) [X, N,N-[(3,5-diacetamido-2,4,6-triiodobenzoyl)-DL-aspartic acid]-bis-N-methyl glucamide], the “solubility (in words)” value in data set [1] is “superior in respect to solubility”. Besides, the solubility (usually how much of the substance goes into solution per volume) in data set [1] (very soluble) is more than 1000 mg/mL. The Viscosity was 10.65 cP in data set [2] (20° C., 200 mg J/ml); 25.38 cP in data set [2] (20° C., 250 mg J/ml); 5.84 cP in data set [2] (37° C., 200 mg J/ml); 12.23 cP in data set [2] (37° C., 250 mg J/ml).
In the case of `CC(=O)Nc1c(I)c(NC(C)=O)c(I)c(C(=O)N(C)CC(=O)N(C)C[C@H](O)[C@@H](O)[C@H](O)[C@H](O)CO)c1I` [II, N,N-[(3,5-diacetamido-2,4,6-triiodobenzoyl)-sarcosine]-N-methyl glucamide], the Color entry in data set [3] (30 min, 110 °C.) was “colorless”; in data set [3] (30 min, 120 °C.), “colorless”; in data set [3] (60 min, 110 °C.) it was “colorless”; in data set [3] (base solution), “colorless”. For the same compound, the Iodide in data set [3] (30 min, 110 °C.) worked out at 2.63 mg J/100 ml; in data set [3] (30 min, 120 °C.), 3.73 mg J/100 ml; in data set [3] (60 min, 110 °C.), 3.72 mg J/100 ml; in data set [3] (base solution), 1.78 mg J/100 ml. In addition, the pH in data set [3] (30 min, 110 °C.) was 7.85; in data set [3] (30 min, 120 °C.) it was 7.80; in data set [3] (60 min, 110 °C.), 7.75; in data set [3] (base solution) it was 7.85. Moreover, the “solubility (in words)” value in data set [1] is on record as “superior in respect to solubility”. The compound also displayed a solubility in data set [1] (very soluble) of more than 1000 mg/mL. The “toxicity (in words)” value in data set [4] (in vivo) is listed as “low toxicity”. In addition, the LD50 – broadly, the dose expected to kill half of the subjects tested – at 336 h in data set [5] amounted to 36000 mg/kg. Also, the Viscosity came out at 2.16 cP in data set [2] (20° C., 100 mg J/ml); 3.50 cP in data set [2] (20° C., 150 mg J/ml); 5.74 cP in data set [2] (20° C., 200 mg J/ml); 10.84 cP in data set [2] (20° C., 250 mg J/ml); 18.88 cP in data set [2] (20° C., 300 mg J/ml); 1.48 cP in data set [2] (37° C., 100 mg J/ml). Besides, the Viscosity in data set [2] (37° C., 150 mg J/ml) was 2.22 cP; in data set [2] (37° C., 200 mg J/ml), 3.32 cP; in data set [2] (37° C., 250 mg J/ml) it was 6.20 cP; in data set [2] (37° C., 300 mg J/ml), 9.22 cP.
In data set [1] (soluble), `CC(=O)Nc1c(I)c(NC(C)=O)c(I)c(C(=O)N[C@@H](C)C(=O)N(C)C[C@H](O)[C@@H](O)[C@H](O)[C@H](O)CO)c1I` [III, N,N-[(3,5-diacetamido-2,4,6-triiodobenzoyl)-L-alanine]-N-methyl glucamide] registered a solubility not above 500 mg/mL.
The compound `CC(=O)Nc1c(I)c(NC(C)=O)c(I)c(C(=O)NCCC(=O)N(C)C[C@H](O)[C@@H](O)[C@H](O)[C@H](O)CO)c1I` [IV, N,N-[(3,5-diacetamido-2,4,6-triiodobenzoyl)-β-alanine]-N-methyl glucamide] returned a solubility in data set [1] (moderately soluble) not above 200 mg/mL.
For `CC(=O)Nc1c(I)c(NC(C)=O)c(I)c(C(=O)N[C@@H](CC(=O)N(C)C[C@H](O)[C@@H](O)[C@H](O)[C@H](O)CO)C(=O)N(C)C[C@H](O)[C@@H](O)[C@H](O)[C@H](O)CO)c1I` [IX, N,N-[(3,5-diacetamido-2,4,6-triiodobenzoyl)-L-aspartic acid]-bis-N-methyl glucamide], the “solubility (in words)” value in data set [1] is on record as “superior in respect to solubility”. In data set [1] (very soluble), this compound showed a solubility of more than 1000 mg/mL. For the same compound, the Viscosity was determined as 2.90 cP in data set [2] (20° C., 100 mg J/ml); 5.15 cP in data set [2] (20° C., 150 mg J/ml); 11.14 cP in data set [2] (20° C., 200 mg J/ml); 33.58 cP in data set [2] (20° C., 250 mg J/ml); 88.85 cP in data set [2] (20° C., 300 mg J/ml); 1.84 cP in data set [2] (37° C., 100 mg J/ml). Besides, the Viscosity amounted to 3.04 cP in data set [2] (37° C., 150 mg J/ml); 6.06 cP in data set [2] (37° C., 200 mg J/ml); 15.96 cP in data set [2] (37° C., 250 mg J/ml); 35.41 cP in data set [2] (37° C., 300 mg J/ml).
The compound `CC(=O)Nc1c(I)c(NC(C)=O)c(I)c(C(=O)NCCCC(=O)N(C)C[C@H](O)[C@@H](O)[C@H](O)[C@H](O)CO)c1I` [V, N,N-[(3,5-diacetamido-2,4,6-triiodobenzoyl)-γ-aminobutyric acid]-N-methyl glucamide] showed a solubility in data set [1] (moderately soluble) not above 200 mg/mL.
The compound `CC(=O)Nc1c(I)c(NC(C)=O)c(I)c(C(=O)N[C@@H](CO)C(=O)N(C)C[C@H](O)[C@@H](O)[C@H](O)[C@H](O)CO)c1I` [VIII, N,N-[(3,5-diacetamido-2,4,6-triiodobenzoyl)-L-serine]-N-methyl glucamide] yielded a solubility in data set [1] (soluble) not above 500 mg/mL. In addition, the Viscosity came to 2.13 cP in data set [2] (20° C., 100 mg J/ml); 3.11 cP in data set [2] (20° C., 150 mg J/ml); 5.15 cP in data set [2] (20° C., 200 mg J/ml); 9.43 cP in data set [2] (20° C., 250 mg J/ml); 20.05 cP in data set [2] (20° C., 300 mg J/ml); 1.84 cP in data set [2] (37° C., 100 mg J/ml). Further, the Viscosity in data set [2] (37° C., 150 mg J/ml) is recorded as 1.95 cP; in data set [2] (37° C., 200 mg J/ml) it was 3.04 cP; in data set [2] (37° C., 250 mg J/ml), 5.16 cP; in data set [2] (37° C., 300 mg J/ml), 9.71 cP.
`CC(=O)Nc1c(I)c(NC(C)=O)c(I)c(C(=O)N[C@@H](CCC(=O)N(C)C[C@H](O)[C@@H](O)[C@H](O)[C@H](O)CO)C(=O)N(C)C[C@H](O)[C@@H](O)[C@H](O)[C@H](O)CO)c1I` [XI, N,N-[(3,5-diacetamido-2,4,6-triiodobenzoyl)-L-glutamic acid]-bis-N-methyl glucamide]: in data set [1], the “solubility (in words)” value is “superior in respect to solubility”. The solubility in data set [1] (moderately soluble) was not above 200 mg/mL; in data set [1] (very soluble), more than 1000 mg/mL.
As for `CC(=O)Nc1c(I)c(NC(C)=O)c(I)c(C(=O)NCCCC[C@H](NC(=O)C(C)O)C(=O)N(C)C[C@H](O)[C@@H](O)[C@H](O)[C@H](O)CO)c1I` (stereo partly drawn) [XII, N,N-[α-lactyl-ε-(3,5-diacetamido-2,4,6-triiodobenzoyl)-L-lysine]-N-methyl glucamide], in data set [1] (moderately soluble), the solubility was not above 200 mg/mL.
In turn, `CC(=O)Nc1c(I)c(NC(C)=O)c(I)c(C(=O)O)c1I` [lysine-diatrizoate, reference compound] gave a median lethal dose (LD50) in data set [4] (i.v., 14 days after application, solution with 300 mg J/ml, 20160 min) of 14000 to 18000 mg/kg.
`CC(=O)Nc1c(I)c(NC(C)=O)c(I)c(C(=O)O)c1I` [sodium-meglumine-diatrizoate, reference compound] showed an LD50 at 336 h in data set [5] of 12000 to 14000 mg/kg.
